Measured values: ChEMBL document CHEMBL2074295, “Molecular identification of the corticosterone-sensitive extraneuronal catecholamine transporter” (Nat Neurosci, 1998)

What was measured:
Assay type in all cases: functional, cell-based
[1] = biological target: T1, Solute carrier family 22 member 3 (Homo sapiens, UniProt O75751); experiment: (§1) TP_TRANSPORTER: uptake in OCT3-expressing HEK293 cells
T1 sequence (O75751 whole entry): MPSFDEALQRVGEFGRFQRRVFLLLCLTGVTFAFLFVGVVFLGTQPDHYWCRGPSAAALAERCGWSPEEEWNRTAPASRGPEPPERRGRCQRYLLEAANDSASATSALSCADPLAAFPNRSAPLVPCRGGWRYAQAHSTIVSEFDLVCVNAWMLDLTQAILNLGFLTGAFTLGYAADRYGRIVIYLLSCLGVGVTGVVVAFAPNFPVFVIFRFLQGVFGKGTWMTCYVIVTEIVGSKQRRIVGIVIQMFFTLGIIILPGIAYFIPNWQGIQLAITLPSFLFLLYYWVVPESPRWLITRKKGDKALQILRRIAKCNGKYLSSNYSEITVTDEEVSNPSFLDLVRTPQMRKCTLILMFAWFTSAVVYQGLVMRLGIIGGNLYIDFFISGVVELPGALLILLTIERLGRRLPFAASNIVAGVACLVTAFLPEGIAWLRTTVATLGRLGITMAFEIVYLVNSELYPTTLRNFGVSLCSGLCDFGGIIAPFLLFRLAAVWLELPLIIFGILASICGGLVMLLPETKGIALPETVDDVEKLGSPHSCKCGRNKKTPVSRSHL

[2] = biological target: T1, Solute carrier family 22 member 3; experiment: TP_TRANSPORTER: inhibition of MPP+ uptake in OCT3-expressing HEK293 cells
[3] = substrate: NC[C@H](O)c1ccc(O)c(O)c1; experiment: as §1

Molecule: NCCc1c[nH]c2ccc(O)cc12 [SEROTONIN]
- Activity [1]: substrate [+]

Molecule: CC(C)N1/C(=C\c2cc[n+](C(C)C)c3ccccc23)C=Cc2ccccc21 [DISPROCYNIUM24]
- Ki [2]: 15 nM

Molecule: NCCc1ccc(O)cc1 [TYRAMINE]
- Activity [1]: substrate [+]

Molecule: C[n+]1ccc(-c2ccccc2)cc1
- Activity [1]: substrate [+]

Molecule: COc1cc2c(c(OC)c1OC)-c1ccc(OC)c(=O)cc1[C@@H](NC(C)=O)CC2 [COLCHICINE]
- Ki [2]: 120 nM

Molecule: Nc1ncnc2c1ncn2CCOCP(=O)(O)O [ADEFOVIR]
- Activity [1]: substrate [+]

B1: Solute carrier family 22 member 3 (Homo sapiens) (protein)
chain: MPSFDEALQRVGEFGRFQRRVFLLLCLTGVTFAFLFVGVVFLGTQPDHYWCRGPSAAALAERCGWSPEEEWNRTAPASRGPEPPERRGRCQRYLLEAANDSASATSALSCADPLAAFPNRSAPLVPCRGGWRYAQAHSTIVSEFDLVCVNAWMLDLTQAILNLGFLTGAFTLGYAADRYGRIVIYLLSCLGVGVTGVVVAFAPNFPVFVIFRFLQGVFGKGTWMTCYVIVTEIVGSKQRRIVGIVIQMFFTLGIIILPGIAYFIPNWQGIQLAITLPSFLFLLYYWVVPESPRWLITRKKGDKALQILRRIAKCNGKYLSSNYSEITVTDEEVSNPSFLDLVRTPQMRKCTLILMFAWFTSAVVYQGLVMRLGIIGGNLYIDFFISGVVELPGALLILLTIERLGRRLPFAASNIVAGVACLVTAFLPEGIAWLRTTVATLGRLGITMAFEIVYLVNSELYPTTLRNFGVSLCSGLCDFGGIIAPFLLFRLAAVWLELPLIIFGILASICGGLVMLLPETKGIALPETVDDVEKLGSPHSCKCGRNKKTPVSRSHL
- Km [3]: 510 µM
